In ChEMBL document CHEMBL3044658, “Synthesis and analgesic activity of new 1,3,4-oxadiazoles and 1,2,4-triazoles” (2011):

Columns and labels:
Assay type in all cases: functional
Mus musculus [1] = experiment: Analgesic activity in Mus musculus NMRI (mouse) assessed as inhibition of late phase of formalin-induced nociception at 30 umol/kg, ip administered 30 min before formalin injection relative to mefenamic acid
Mus musculus [2] = experiment: Analgesic activity in Mus musculus NMRI (mouse) assessed as inhibition of late phase of formalin-induced nociception at 30 umol/kg, ip administered 30 min before formalin injection relative to control
Mus musculus [3] = experiment: Analgesic activity in Mus musculus NMRI (mouse) assessed as inhibition of early phase of formalin-induced nociception at 30 umol/kg, ip administered 30 min before formalin injection relative to control

Row | SMILES | Ratio (Mus musculus [1]) | inhibition in vivo at 30 µmol/kg (Mus musculus [2]) [%] | inhibition in vivo at 30 µmol/kg (Mus musculus [3]) [%]
1 | Nc1nnc(-c2ccccc2S(=O)(=O)c2ccccc2)o1 | 0.91 | 68.3 | 40.5
2 | [O-][S+](c1ccccc1)c1ccccc1-c1n[nH]c(=S)[nH]1 (stereo not given) | 0.85 | 63.3 | 31.7
3 | S=c1[nH]nc(-c2ccccc2Sc2ccccc2)[nH]1 | 1.06 | 79.6 | 49.4
4 | Cc1cccc(Nc2ccccc2C(=O)O)c1C [MEFENAMIC ACID] |  | 74.9 | 24.1
5 | O=S(=O)(c1ccccc1)c1ccccc1-c1n[nH]c(=S)o1 | 0.77 | 58 | 41.9
6 | Nc1nnc(-c2ccccc2[S+]([O-])c2ccccc2)o1 (stereo not given) | 1.07 | 79.9 | 29.4
7 | Nc1nnc(-c2ccccc2Sc2ccccc2)o1 | 0.85 | 63.7 | 16.6
8 | [O-][S+](c1ccccc1)c1ccccc1-c1n[nH]c(=S)o1 (stereo not given) | 1.15 | 86.1 | 40.9
9 | Nc1nnc(-c2ccccc2Sc2ccccc2Cl)o1 | 0.89 | 67.1 | 26.7
10 | S=c1[nH]nc(-c2ccccc2Sc2ccccc2)o1 | 0.95 | 71.3 | 13.1
11 | S=c1[nH]nc(-c2ccccc2Sc2ccccc2Cl)o1 | 1.06 | 80.5 | 16.8
12 | O=S(=O)(c1ccccc1)c1ccccc1-c1n[nH]c(=S)[nH]1 | 0.87 | 64.9 | 31.2
